Read-outs that look alike come from different tables or passages of the source. Marks after values point to notes of the source that are not given here. Some results are limits rather than exact numbers.

In data set [1] the test system is chloroquine-sensitive D6 strain of P. falciparum. Kind of data set: In vitro antiplasmodial assay, (G-3H) hypoxanthine incorporation, D6 strain. It is filed as cell-based. The settings on record: Plasmodium falciparum. As to the method: (§1) Continuous in vitro cultures of asexual erythrocytic stages of Indochinese chloroquine-resistant W2 and Sierra Leonean chloroquine-sensitive D6 strains of P. falciparum were maintained following the modified procedure described by Trager and Jensen. Drug assay was carried out following a modification of the semiautomated microdilution technique, which measures the ability of the extracts to inhibit the incorporation of (G-^3H) hypoxanthine into the malaria parasite. […] Data was transferred into the software Microsoft Excel and was expressed as the percentage of the untreated controls. The drug concentration required for 50% inhibition of (G-^3H) hypoxanthine incorporation into parasite nucleic acid was calculated with nonlinear regression analysis of the dose-response curve.

In data set [2] the test system is African monkey kidney (vero) cells. Kind of data set: MTT cytotoxicity assay, vero cells. It is filed as cell-based. The settings on record: Primates, 48 h, read-out: IC50 Vero. The text has this:
(§2) This assay is based on the ability of a mitochondrial dehydrogenase enzyme from viable cells to cleave the tetrazolium rings of the pale yellow MTT and thereby form dark blue formazan crystals, which are largely impermeable to cell membranes, resulting in their accumulation within healthy cells. The amount of generated formazan is directly proportional to the number of cells. […] Cells were maintained in Eagle’s Minimum Essential Medium (MEM) containing 10% fetal bovine serum (FBS). A cell density of 20.000 cells per well in 100 μL were seeded on 96-well plates and incubated for 12 h at 37 °C and 5% CO2 to attach to the surface. […] The plates were incubated for 48 h at 37 °C and 5% CO2, followed by an addition of 10 µL MTT viability indicator reagent. The plates were incubated for additional 4 h at the same conditions. Next, all media was removed from the plates and 100 µL DMSO was added to dissolve the formazan crystals. The plates were read on a Multiskan EX Labsystems scanning multi-well spectrophotometer at 562 nm, and 620 nm as reference. The results were recorded as optical density (OD) per well at each drug concentration. The data was transferred into the software Microsoft Excel and expressed as percentage of the untreated controls.
(In general: Tetrazolium assays rely on reduction of a dye to a coloured formazan, in cell work by metabolically active cells.)

The subject of data set [3] is chloroquine-resistant W2 strain of P. falciparum. Kind of data set: In vitro antiplasmodial assay, (G-3H) hypoxanthine incorporation, W2 strain. To be noted: Plasmodium falciparum, pure compounds. It counts as cell-based. The method, then: as §1
Data set [4] concerns human larynx carcinoma (HEp2) cells. Kind of data set: MTT cytotoxicity assay, HEp2 cells. It is filed as cell-based. To be noted: HEp-2, pure compounds, 48 h. The method, then: (§3) A rapid colorimetric assay was carried out using 3-(4,5-dimethylthiazol-2-yl)-2,5-diphenyltetrazolium bromide (MTT). This assay is based on the ability of a mitochondrial dehydrogenase enzyme from viable cells to cleave the tetrazolium rings of the pale yellow MTT and thereby form dark blue formazan crystals, which are largely impermeable to cell membranes, resulting in their accumulation within healthy cells. The amount of generated formazan is directly proportional to the number of cells. In this assay, the mammalian cell lines African monkey kidney (vero), mouse breast cancer (4T1) and human larynx carcinoma (HEp2) were used. Cells were maintained in Eagle’s Minimum Essential Medium (MEM) containing 10% fetal bovine serum (FBS). A cell density of 20.000 cells per well in 100 μL were seeded on 96-well plates and incubated for 12 h at 37 °C and 5% CO2 to attach to the surface. Samples of the tested extracts and isolated compounds were added to the cultured cells in rows H-B over a concentration range of 0.14 to 100 μg/mL, whereas wells 1–8 of row A served as untreated controls and wells 9–12 as blank (1% DMSO, v/v). The plates were incubated for 48 h at 37 °C and 5% CO2, followed by an addition of 10 µL MTT viability indicator reagent. The plates were incubated for additional 4 h at the same conditions. Next, all media was removed from the plates and 100 µL DMSO was added to dissolve the formazan crystals. The plates were read on a Multiskan EX Labsystems scanning multi-well spectrophotometer at 562 nm, and 620 nm as reference. The results were recorded as optical density (OD) per well at each drug concentration. The data was transferred into the software Microsoft Excel and expressed as percentage of the untreated controls. Percentage cytotoxicity (PC) as compared to the untreated controls was calculated as PC = [A − B/A] × 100, where A is the mean OD of the untreated cells and B is the mean OD at each drug concentration. The drug concentration required for 50% inhibition of cell growth was estimated using nonlinear regression analysis of the dose- response curve.

Data set [5] deals with MDA-MB-231 human breast cancer cells. In words: Alamar Blue cytotoxicity assay, MDA-MB-231 cells. It is filed as cell-based. The settings on record: pure compounds, 72 h. As to the method:
Cytotoxicity tests on MDA-MB-231 cells were carried out following a previously described procedure. MDA-MB-231 human breast cancer cells were cultured in Dulbecco’s modified eagle medium (DMEM) supplemented with 10% (v/v) fetal bovine serum, 2 mM L-glutamine, 100 units/mL penicillin and 100 μg/mL streptomycin at 37 °C in humidified 5% CO2. For cytotoxicity assays, cells were seeded in 96-well plates at optimal cell density (10,000 cells per well) to ensure exponential growth for the duration of the assay. After a 24 h preincubation growth, the medium was replaced with experimental medium containing the appropriate drug concentrations or vehicle controls (0.1% or 1.0% v/v DMSO). After 72 h of incubation, cell viability was measured using Alamar Blue reagent (Invitrogen Ab, Lidingö, Sweden) according to the manufacturer’s instructions. Absorbance was measured at 570 nm with 600 nm as a reference wavelength. Results were expressed as the mean ± standard error for six replicates as a percentage of vehicle control (taken as 100%). Experiments were performed independently at least six times. Statistical analyses were performed using a two-tailed Student’s t-test. p < 0.05 was considered to be statistically significant.
(In general: The colour change of resazurin is a common sign of viable cells or microbes.)

Data set [6] has as its system vero cells. Kind of data set: Interaction of oleanonic acid (2) with other triterpenoids, fixed ratios, vero cell cytotoxicity. It counts as cell-based, African monkey. The settings on record: for IC50: Primates, ratio 0:1, in the absence of 2 (for 2: alone), read-out: IC50 (μg/mL), substance alone; for ∑FIC 1:1: ratio of oleanonic acid (2) versus constituent 1:1; for ∑FIC 1:3: ratio of oleanonic acid (2) versus constituent 1:3; for ∑FIC 3:1: ratio of oleanonic acid (2) versus constituent 3:1.
From the text: as §3, with “This” for “A rapid colorimetric assay was carried out using 3-(4,5-dimethylthiazol-2-yl)-2,5-diphenyltetrazolium bromide (MTT). This”, “In this assay, the mammalian cell lines African monkey kidney (vero), mouse breast cancer (4T1) and human larynx carcinoma (HEp2) were used.” left out, “Samples of the tested extracts and isolated compounds were added to the cultured cells in rows H-B over a concentration range of 0.14 to 100 μg/mL, whereas wells 1–8 of row A served as untreated controls and wells 9–12 as blank (1% DMSO, v/v).” left out, “curve. The interaction of oleanonic acid (2) with other triterpenoids was studied using the fixed concentration ratios oleanonic acid: ‘other triterpenoid’ 0:1, 1:3, 1:1, 3:1, 1:0. The vero cell cytotoxicity assay was used, as described above, to evaluate the toxicity of the mixtures. To determine whether there was synergy, additive effect or antagonism, the sum of fractional inhibition concentration (∑FIC) was calculated using the formula Ax/Ay + Bx/By = K, where Ax and Bx are the IC50s when the substances are used in combination, and Ay and By are the IC50s, when the substances are used alone. The data was scored with the scale ∑FIC < 1: synergism, 2 > ∑FIC ≥ 1: additive, 4 > ∑FIC ≥ 2: slight antagonism, ∑FIC ≥ 4: marked antagonism.” for “curve.”

The test system of data set [7] is mouse breast cancer (4T1) cells. In words: MTT cytotoxicity assay, 4T1 cells. It is filed as cell-based. The settings on record: 4T1, 48 h, pure compounds.
From the text: as §2

Where [8] appears, read: pure compounds, P. falciparum D6, mean of at least three independent experiments, read-out: IC50 D6.

For `CCN(CC)CCCC(C)Nc1ccnc2cc(Cl)ccc12` (centres unmarked) [Chloroquine, reference compound], the IC50 in data set [1] (D6, read-out: IC50(D6)) is 0.0077 µM; in data set [2] (Vero), 43.9 µM.
Consider `CC1(C)CC[C@]2(C(=O)O)CC[C@]3(C)C(=CC[C@@H]4[C@@]5(C)CCC(=O)C(C)(C)[C@@H]5CC[C@]43C)[C@@H]2C1` [Compound 2, oleanonic acid], for which the IC50 was 38.8 ± 0.5 µM in data set [1] (setting [8]); 76.7 ± 4 µM in data set [3]; 35.8 ± 1.3 µM in data set [2] (vero cells, MTT); 1.4 ± 0.1 µM in data set [4]; above 212 µM in data set [5]; 14.8 µg/mL in data set [6].
Take `CC1(C)CC[C@]2(C(=O)O)CC[C@]3(C)C(=CC[C@@H]4[C@@]5(C)CC[C@@H](O)C(C)(C)[C@@H]5CC[C@]43C)C2C1` (stereo partly drawn) [Compound 3, 3-epi-oleanolic acid]: the IC50 in data set [1] (setting [8]) was determined as 205 ± 3 µM; in data set [3] it was 179 ± 6 µM; in data set [2] (vero cells, MTT), 58 ± 5.2 µM; in data set [7], 30.3 ± 2.6 µM; in data set [4], 29.8 ± 0.3 µM; in data set [5], 36.54 ± 0.02 µM. The IC50 in data set [6] was 22.5 µg/mL. Further, in data set [6], the “Interaction with the cytotoxic effect of oleanonic acid (2), in words” value (from here on “Interaction with the cytotoxic effect”) is recorded as “markedly antagonized”. In addition, the “∑FIC 1:1” value in data set [6] is on record as 5.2 ^c. In addition, the “∑FIC 1:3” value in data set [6] is given as 9.8 ^c. For the same compound, the “∑FIC 3:1” value in data set [6] is 5.8 ^c.
For the compound `CC(C)C12CCC3(CCC4(C)C(CCC5C6(C)CCC(=O)C(C)(C)C6CCC54C)C3O1)CO2` (centres unmarked) [Compound 5, ekeberin A], the IC50 in data set [1] (setting [8]) was 182 ± 6 µM; in data set [3], above 219 µM; in data set [2] (vero cells, MTT), above 219 µM; in data set [7] it was 163 ± 4.3 µM; in data set [4], above 219 µM; in data set [6], above 100 µg/mL. The “Interaction with the cytotoxic effect” value in data set [6] was “antagonized by high concentrations of ekeberin A (5), but at lower relative concentrations 5 enhanced the toxicity of 2”. Further, in data set [6], the “∑FIC 1:1” value was <1.4 ^c. In data set [6], the “∑FIC 1:3” value is <4 ^c. For the same compound, in data set [6], the “∑FIC 3:1” value is given as <1.3 ^c.
On to `CC(=CCCC=C(C)CCC=C(C)CCC(O)C(C)(O)CO)CCC=C(C)CCC(O)C(C)(C)O` (centres unmarked) [Compound 6, 2-hydroxymethyl-2,3,22,23-tetrahydroxy-6,10,15,19,23-pentamethyl-6,10,14,18-tetracosatetraene], for which the IC50 was 27.1 ± 0.4 µM in data set [1] (setting [8]); 66.9 ± 0.6 µM in data set [3]; 35.7 ± 2.1 µM in data set [2] (vero cells, MTT); 30.2 ± 1.3 µM in data set [7]; 38.4 ± 0.8 µM in data set [4]; 36.69 ± 0.04 µM in data set [5]. Besides, the IC50 in data set [6] is 13.6 µg/mL. Also, the “Interaction with the cytotoxic effect” value in data set [6] was “weak antagonistic effects”. Also, the “∑FIC 1:1” value in data set [6] is 2.2 ^c. Further, the “∑FIC 1:3” value in data set [6] was 2.2 ^c. In data set [6], the “∑FIC 3:1” value is reported as 2.3 ^c.
As for `CC(=CCCC=C(C)CCC=C(C)CCC(O)C(C)(C)O)CCC=C(C)CCC(O)C(C)(C)O` (centres unmarked) [Compound 7, 2,3,22,23-tetrahydroxy-2,6,10,15,19,23-hexamethyl-6,10,14,18-tetracosatetraene], the IC50 in data set [1] (setting [8]) is 56.1 ± 0.4 µM; in data set [3], 64.3 ± 1 µM; in data set [2] (vero cells, MTT) it was 24.7 ± 1.8 µM; in data set [7] it was 22.5 ± 3.2 µM; in data set [4], 35.5 ± 3.1 µM; in data set [5], above 209 µM. In addition, the IC50 in data set [6] was found to be 11 µg/mL. Also, in data set [6], the “Interaction with the cytotoxic effect” value is given as “weak antagonistic effects”. Besides, the “∑FIC 1:1” value in data set [6] was 1.9 ^c. Moreover, in data set [6], the “∑FIC 1:3” value is 2 ^c. In addition, the “∑FIC 3:1” value in data set [6] was 2.2 ^c.
As for `COC(=O)C[C@H]1C(C)(C)[C@H](O)[C@@H]2CC3=C4CC(=O)O[C@@H](c5ccoc5)[C@]4(C)CC[C@@H]3[C@@]1(C)C2=O` [Compound 8, proceranolide], the IC50 is 84.7 ± 0.8 µM in data set [1] (setting [8]); 150 ± 3 µM in data set [3]; above 213 µM in data set [2] (vero cells, MTT); above 213 µM in data set [7]; above 213 µM in data set [4].
Consider `O=c1c(O[C@@H]2O[C@H](CO)[C@@H](O)[C@H](O)[C@H]2O)c(-c2ccc(O)cc2)oc2cc(O)cc(O)c12` [Compound 9, kaempferol-3-O-β-D-glucopyranoside], for which the IC50 in data set [1] (setting [8]) is 97.1 ± 1 µM; in data set [3] it was 105.8 ± 0.5 µM; in data set [2] (vero cells, MTT) it was above 223 µM; in data set [7], above 223 µM; in data set [4] it was above 223 µM; in data set [5], above 223 µM.
Regarding `O=c1c(O[C@@H]2O[C@H](CO)[C@@H](O)[C@H](O)[C@H]2O)c(-c2ccc(O)c(O)c2)oc2cc(O)cc(O)c12` [Compound 10, quercetin-3-O-β-D-glucopyranoside], the IC50 was 42.9 ± 0.3 µM in data set [1] (setting [8]); 105.8 ± 1 µM in data set [3]; above 216 µM in data set [2] (vero cells, MTT); above 216 µM in data set [7]; above 216 µM in data set [4]; above 216 µM in data set [5].

The values above are taken from PMC6270759, “Constituents of the Roots and Leaves of Ekebergia capensis and Their Potential Antiplasmodial and Cytotoxic Activities” (Molecules, 2014).
